Literature values in publication PMC9347208, “Pharmacological activation of the hERG K^+ channel for the management of the long QT syndrome: A review” (Journal of Arrhythmia, 2022).

Legend:
hERG channel = conditions: type of hERG activator by main mechanism of action; ref [40]
zebrafish hearts = conditions: ref [18]
neuronal erg3 channel = test system: neuronal erg3 channel; parameters: method as in PMID 32559136, PMID 15548764, PMID 34398210, PMID 29050968, PMID 17693551; conditions: ref [18], [23], [26], [41], [49], [70], [73]
hERG1a and hERG1b = test system: hERG1a and hERG1b; parameters: method as in column Ref. of the table row
[1] = test system: guinea pig cardiomyocytes; parameters: method as in PMID 32559136, PMID 15548764, PMID 34398210, PMID 29050968, PMID 17693551; conditions: ref [18], [23], [26], [41], [49], [70], [73]

COc1ccc2nccc(C(=O)CC[C@@H]3CCN(CC#Cc4cc(F)cc(F)c4F)C[C@@H]3C(=O)O)c2c1 [RPR260243]
Type (hERG channel): 1 | Channel selectivity: effect on recombinant hKCNQ1‐KCNE1 (IKs) (hKCNQ1‐KCNE1 (IKs)): No effect | APD (zebrafish hearts; zebrafish heart, 30 μM): abbreviated APD | Refractory period (zebrafish hearts; zebrafish heart, 30 μM): increased refractory period | Triangulation of the AP (zebrafish hearts; zebrafish heart, 30 μM): reduced triangulation of the AP | Slope of the restitution curve (zebrafish hearts; zebrafish heart): increase in the slope of the restitution curve | Efficacy against dofetilide‐induced arrhythmia (zebrafish hearts; zebrafish hearts): effective | Reported benefit for LQTS: diLQTS (zebrafish hearts; zebrafish hearts, [23], [26], [41], [49], [70], [73]): corrects for electrophysiological effects of pharmacologically inhibited hERG currents | Channel selectivity: effect on recombinant neuronal erg3 channel (neuronal erg3 channel): inhibits | Channel selectivity: sensitivity of hERG1a versus hERG1b (hERG1a and hERG1b): Differential sensitivity | Reported benefit for LQTS: diLQTS [1]: corrects for electrophysiological effects of pharmacologically inhibited hERG currents | Reported associated pro‐arrhythmic risk: cardiac conduction (guinea pig hearts; guinea pig hearts, ref [65]): Possible risk associated with impairment of conduction velocity in guinea pig hearts (prolonged PR interval of the ECG) | Efficacy against dofetilide‐induced arrhythmia (guinea pig hearts; guinea pig, ref [23]): effective | Effect on I Ca‐L (ICa,L; 30 μM, ref [23]): weak inhibition | Channel selectivity: effect on cardiac ICa,L (ICa,L; recorded from guinea pig cardiomyocytes): Weakly inhibits | Channel selectivity: effect on recombinant hNav1.5 (INa) (hNav1.5 (INa)): No effect | Resurgent hERG amplitude during the AP (R56Q hERG; R56Q hERG mutant, ref [26]): Little to no increase | hERG protective current (R56Q hERG; R56Q hERG mutant, ref [26]): selectively increase hERG protective current in the early refractory period | Reported benefit for LQTS: cLQTS (R56Q hERG; R56Q hERG, ref [18], [23], [26], [41], [49], [70], [73]): corrects for effects of trafficking deficient LQT2‐associated R56Q hERG
